Like-named read-outs stand apart in the source and are kept apart here.

Consider 38 molecules from paper PMC8972196, “A Set of Experimentally Validated Decoys for the Human CC Chemokine Receptor 7 (CCR7) Obtained by Virtual Screening” (Frontiers in Pharmacology, 2022).

The experiment has as its target T1, human CCR7 (Homo sapiens, UniProt P32248).
T1 construct: expressed in transfected cells
T1 sequence (P32248 25-378): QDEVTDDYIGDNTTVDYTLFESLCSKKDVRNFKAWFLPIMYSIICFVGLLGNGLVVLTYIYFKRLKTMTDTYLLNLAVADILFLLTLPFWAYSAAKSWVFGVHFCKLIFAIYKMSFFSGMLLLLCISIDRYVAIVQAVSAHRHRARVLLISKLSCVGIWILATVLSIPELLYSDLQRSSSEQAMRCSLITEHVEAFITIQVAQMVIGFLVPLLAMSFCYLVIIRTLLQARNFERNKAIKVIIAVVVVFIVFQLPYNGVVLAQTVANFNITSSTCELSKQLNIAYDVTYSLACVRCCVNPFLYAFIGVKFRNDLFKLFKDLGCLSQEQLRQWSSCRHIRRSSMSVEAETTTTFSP
The experiment is described as follows: CCL19-induced calcium mobilization assay, U87.CD4 cells expressing CCR7. The experiment is classed as cell-based. Conditions: for Decoy – 0 Active – 1: classification of tested compounds as decoy or active. The procedure: U87.CD4 cells that stably express either human CCR7, CXCR2, CCR5 or CXCR4 were seeded (20,000 cells/well) in gelatin-coated black-walled polystyrene 96-well plates with clear bottom and incubated overnight at 37°C and 5% CO2. […] Culture medium was removed, and cells were incubated for 45 min at room temperature in the dark. […] Exactly the same protocol was used to record calcium responses in Chinese hamster ovary (CHO)-K1 cells, upon stimulation with adenosine triphosphate (ATP, purchased from Sigma).

The mark [1] stands for this setting: CCL19-induced calcium signaling, read-out: IC50 [μM] block CCL19 induced calcium signaling.

Usually IC50 stands for the point on the concentration scale where inhibition reaches its midpoint. As to `CC(O)CNc1c(NCc2ccc3c(c2)OCO3)c(=O)c1=O` (stereo not shown) [C001, CC(O)CNc1c(NCc2ccc3c(c2)OCO3)c(=O)c1=O], the “Decoy – 0 Active – 1” value was found to be 0. The IC50 under setting [1] is over 50 µM.

On to `COc1ccc(N2CCN(c3c(NCc4cccc(Cl)c4)c(=O)c3=O)CC2)cc1` [C002, COc1ccc(N2CCN(c3c(NCc4cccc(Cl)c4)c(=O)c3=O)CC2)cc1], for which the “Decoy – 0 Active – 1” value is 0. Besides, the IC50 under setting [1] was over 50 µM.

Consider `O=c1c(NCC2COc3ccccc3O2)c(N2CCSCC2)c1=O` (stereo not shown) [C003, O=c1c(NCC2COc3ccccc3O2)c(N2CCSCC2)c1=O], for which the “Decoy – 0 Active – 1” value is 0. Moreover, the IC50 under setting [1] is over 50 µM.

`COc1ccc2ccccc2c1CNc1c(N2CCSCC2)c(=O)c1=O` [C004, COc1ccc2ccccc2c1CNc1c(N2CCSCC2)c(=O)c1=O]: the “Decoy – 0 Active – 1” value turned out to be 0. Further, under setting [1], the IC50 is over 50 µM.

Regarding `COC(=O)c1ccccc1Nc1c(N2CCNC(=O)C2)c(=O)c1=O` [C005, COC(=O)c1ccccc1Nc1c(N2CCNC(=O)C2)c(=O)c1=O], the “Decoy – 0 Active – 1” value was found to be 0. Moreover, the IC50 under setting [1] was over 50 µM.

On to `COC(=O)c1sccc1Nc1c(NC2CCCCC2)c(=O)c1=O` [C006, COC(=O)c1sccc1Nc1c(NC2CCCCC2)c(=O)c1=O], for which the “Decoy – 0 Active – 1” value is 0. In addition, the IC50 under setting [1] was over 50 µM.

As to `CC(O)CNc1c(N2CCN(Cc3ccccc3Cl)CC2)c(=O)c1=O` (stereo not shown) [C007, CC(O)CNc1c(N2CC[NH+](Cc3ccccc3Cl)CC2)c(=O)c1=O], the IC50 was over 50 µM and the “Decoy – 0 Active – 1” value stood at 0.

In the case of `O=C(CNc1c(N2CCN(c3ccc(Cl)cc3)CC2)c(=O)c1=O)NCc1ccco1` [C008, O=C(CNc1c(N2CCN(c3ccc(Cl)cc3)CC2)c(=O)c1=O)NCc1ccco1], the “Decoy – 0 Active – 1” value was determined as 0. For the same molecule, under setting [1], the IC50 was over 50 µM.

Regarding `COC(=O)c1sccc1Nc1c(NCc2ccc(Cl)cc2)c(=O)c1=O` [C009, COC(=O)c1sccc1Nc1c(NCc2ccc(Cl)cc2)c(=O)c1=O], the “Decoy – 0 Active – 1” value is on record as 0. Moreover, under setting [1], the IC50 was over 50 µM.

With `O=C(CNc1c(NCc2ccc3c(c2)OCO3)c(=O)c1=O)N1CCCC1` [C010, O=C(CNc1c(NCc2ccc3c(c2)OCO3)c(=O)c1=O)N1CCCC1], the “Decoy – 0 Active – 1” value turned out to be 0. Further, the IC50 under setting [1] was over 50 µM.

In the case of `COC(=O)c1ccccc1Nc1c(NCc2ccc(OC)cc2)c(=O)c1=O` [C011, COC(=O)c1ccccc1Nc1c(NCc2ccc(OC)cc2)c(=O)c1=O], the “Decoy – 0 Active – 1” value is on record as 0. Moreover, the IC50 under setting [1] is over 50 µM.

On to `COc1ccc(CNc2c(NCc3ccc4c(c3)OCO4)c(=O)c2=O)cc1` [C012, COc1ccc(CNc2c(NCc3ccc4c(c3)OCO4)c(=O)c2=O)cc1], for which the “Decoy – 0 Active – 1” value is 0. The IC50 under setting [1] was over 50 µM.

As to `CC(Nc1c(NCc2ccc3c(c2)OCO3)c(=O)c1=O)c1ccccc1` (stereo not shown) [C013, CC(Nc1c(NCc2ccc3c(c2)OCO3)c(=O)c1=O)c1ccccc1], the “Decoy – 0 Active – 1” value is listed as 0. The IC50 under setting [1] was over 50 µM.

Take `COc1ccc(CNc2c(NC(C)c3ccccc3)c(=O)c2=O)cc1OC` (stereo not shown) [C014, COc1ccc(CNc2c(NC(C)c3ccccc3)c(=O)c2=O)cc1OC]: the “Decoy – 0 Active – 1” value was 0. For the same molecule, under setting [1], the concentration for half-maximal inhibition (IC50) is over 50 µM.

As for `CN(C)C1(CNc2c(N3CCN(Cc4ccccc4Cl)CC3)c(=O)c2=O)CCCC1` [C015, C[NH+](C)C1(CNc2c(N3CC[NH+](Cc4ccccc4Cl)CC3)c(=O)c2=O)CCCC1], the “Decoy – 0 Active – 1” value turned out to be 0. The half-maximal inhibitory concentration (IC50) under setting [1] is over 50 µM.

In the case of `COC(=O)c1ccccc1Nc1c(NCC2CC2)c(=O)c1=O` [C016, COC(=O)c1ccccc1Nc1c(NCC2CC2)c(=O)c1=O], the “Decoy – 0 Active – 1” value was 0. Under setting [1], the IC50 is over 50 µM.

`O=c1c(NCc2cc(C(F)(F)F)cc(C(F)(F)F)c2)c(NCc2cc(C(F)(F)F)cc(C(F)(F)F)c2)c1=O` [C017, O=C1C(NCC2=CC(C(F)(F)F)=CC(C(F)(F)F)=C2)=C(NCC3=CC(C(F)(F)F)=CC(C(F)(F)F)=C3)C1=O]: the “Decoy – 0 Active – 1” value is reported as 0. Further, the IC50 under setting [1] is over 50 µM.

Take `O=c1c(Nc2cc(C(F)(F)F)cc(C(F)(F)F)c2)c(Nc2cc(C(F)(F)F)cc(C(F)(F)F)c2)c1=O` [C018, O=C1C(NC2=CC(C(F)(F)F)=CC(C(F)(F)F)=C2)=C(NC3=CC(C(F)(F)F)=CC(C(F)(F)F)=C3)C1=O]: the “Decoy – 0 Active – 1” value is on record as 0. Moreover, the IC50 under setting [1] was over 50 µM.

In the case of `CC1(C)[C@H]2CC[C@@]1(CNc1c(NCc3cc(C(F)(F)F)cc(C(F)(F)F)c3)c(=O)c1=O)[C@H](N1CCCC1)C2` [C019, O=C1C(NC[C@]23CC[C@H](C3(C)C)C[C@H]2N4CCCC4)=C(NCC5=CC(C(F)(F)F)=CC(C(F)(F)F)=C5)C1=O], the “Decoy – 0 Active – 1” value is recorded as 0. For the same molecule, the IC50 under setting [1] is over 50 µM.

With `CN(C)[C@H]1CCCC[C@@H]1Nc1c(NCc2cc(C(F)(F)F)cc(C(F)(F)F)c2)c(=O)c1=O` [C020, O=C1C(N[C@H]2CCCC[C@@H]2N(C)C)=C(NCC3=CC(C(F)(F)F)=CC(C(F)(F)F)=C3)C1=O], the “Decoy – 0 Active – 1” value is listed as 0. In addition, under setting [1], the IC50 is over 50 µM.

Regarding `CN(C)[C@@H]1CCCC[C@H]1Nc1c(NCc2cc(C(F)(F)F)cc(C(F)(F)F)c2)c(=O)c1=O` [C021, CN(C)[C@@H]1CCCC[C@H]1NC(C2=O)=C(NCC3=CC(C(F)(F)F)=CC(C(F)(F)F)=C3)C2=O], the “Decoy – 0 Active – 1” value was 0. Further, under setting [1], the IC50 is over 50 µM.

`C[C@H](Nc1c(N[C@H]2C[C@H]3CC[C@@]2(CN2CCCC2)C3(C)C)c(=O)c1=O)c1cccc2ccccc12` [C022, CC1(C)[C@@H]2CC[C@]1(CN3CCCC3)[C@@H](NC(C4=O)=C(N[C@H](C5=CC=CC6=C5C=CC=C6)C)C4=O)C2]: the “Decoy – 0 Active – 1” value is listed as 0. The IC50 under setting [1] was over 50 µM.

As to `O=c1c(Nc2cc(C(F)(F)F)cc(C(F)(F)F)c2)c(N[C@H]2CCCC[C@@H]2N2CCCCC2)c1=O` [C023, O=C1C(N[C@H]2CCCC[C@@H]2N3CCCCC3)=C(NC4=CC(C(F)(F)F)=CC(C(F)(F)F)=C4)C1=O], the “Decoy – 0 Active – 1” value turned out to be 0. In addition, under setting [1], the IC50 was over 50 µM.

Turning to `CN(C)CCNc1c(Nc2cc(C(F)(F)F)cc(C(F)(F)F)c2)c(=O)c1=O` [C024, O=C1C(NCCN(C)C)=C(NC2=CC(C(F)(F)F)=CC(C(F)(F)F)=C2)C1=O], the “Decoy – 0 Active – 1” value stood at 0. Also, the IC50 under setting [1] is over 50 µM.

As for `COc1c(Nc2cc(C(F)(F)F)cc(C(F)(F)F)c2)c(=O)c1=O` [C025, O=C1C(OC)=C(NC2=CC(C(F)(F)F)=CC(C(F)(F)F)=C2)C1=O], the “Decoy – 0 Active – 1” value is 0. Besides, under setting [1], the IC50 was over 30 µM.

Consider `COc1ccc(C)cc1NC(=S)N1CCN(c2ccccc2O)CC1` [C026, COc1ccc(C)cc1NC(=S)N1CCN(CC1)c1ccccc1O], for which the “Decoy – 0 Active – 1” value is reported as 0. The IC50 under setting [1] was over 30 µM.

With `FC(F)(F)c1cccc(Cn2cnc(NC(=S)NCCc3ccccc3)n2)c1` [C027, FC(F)(F)c1cccc(Cn2cnc(NC(=S)NCCc3ccccc3)n2)c1], the “Decoy – 0 Active – 1” value is listed as 0. Also, the IC50 under setting [1] is over 30 µM.

Take `NC(=O)C1CC(O)CN1C(=S)Nc1ccc(S(=O)(=O)N2CCOCC2)cc1` (stereo not shown) [C028, NC(=O)C1CC(O)CN1C(=S)Nc1ccc(cc1)S(=O)(=O)N1CCOCC1]: the “Decoy – 0 Active – 1” value was found to be 0. The IC50 under setting [1] was over 30 µM.

`Cc1sc(NC(=S)NC(=O)CCc2ccccc2)c(C(N)=O)c1C` [C029, Cc1sc(NC(=S)NC(=O)CCc2ccccc2)c(C(N)=O)c1C]: the “Decoy – 0 Active – 1” value was 0. Further, the IC50 under setting [1] was over 30 µM.

`O=[N+]([O-])c1ccc(C(O)CNC(=S)NCc2ccc3c(c2)OCO3)cc1` (stereo not shown) [C030, OC(CNC(=S)NCc1ccc2OCOc2c1)c1ccc(cc1)[N+]([O-])=O]: the “Decoy – 0 Active – 1” value was found to be 0. For the same molecule, the IC50 under setting [1] is over 30 µM.

Turning to `FC(F)(F)c1ccccc1NC(=S)Nc1ccn(Cc2ccc(Cl)cc2)n1` [C031, FC(F)(F)c1ccccc1NC(=S)Nc1ccn(Cc2ccc(Cl)cc2)n1], the “Decoy – 0 Active – 1” value amounted to 0. The IC50 under setting [1] is over 30 µM.

For `Cc1ccnc(NC(=S)NC(=O)c2cccc3ccccc23)c1` [C032, Cc1ccnc(NC(=S)NC(=O)c2cccc3ccccc23)c1], the “Decoy – 0 Active – 1” value is on record as 0. The IC50 under setting [1] was over 30 µM.

For the molecule `CCc1cccc(NC(=S)NNC(=O)c2cccc([N+](=O)[O-])c2)c1` [C033, CCc1cccc(NC(=S)NNC(=O)c2cccc(c2)[N+]([O-])=O)c1], the “Decoy – 0 Active – 1” value came to 0. Also, under setting [1], the IC50 was over 30 µM.

Take `O=C1NCCN1CCNC(=S)Nc1cc(C(F)(F)F)cc(C(F)(F)F)c1` [C034, FC(F)(F)c1cc(NC(=S)NCCN2CCNC2=O)cc(c1)C(F)(F)F]: the “Decoy – 0 Active – 1” value is on record as 0. The IC50 under setting [1] was over 30 µM.

With `FC(F)(F)c1ccccc1NC(=S)Nc1ccc(OCc2ccccc2)cc1` [C035, FC(F)(F)c1ccccc1NC(=S)Nc1ccc(OCc2ccccc2)cc1], the “Decoy – 0 Active – 1” value was determined as 0. In addition, under setting [1], the IC50 was over 30 µM.

Regarding `FC(F)(F)c1cccc(NC(=S)NCc2ccccc2C(F)(F)F)c1` [C036, FC(F)(F)c1cccc(NC(=S)NCc2ccccc2C(F)(F)F)c1], the “Decoy – 0 Active – 1” value is reported as 0. Under setting [1], the IC50 was over 30 µM.

`Cn1ncc(NC(=S)Nc2ccccc2C(F)(F)F)c1C(N)=O` [C037, Cn1ncc(NC(=S)Nc2ccccc2C(F)(F)F)c1C(N)=O]: the “Decoy – 0 Active – 1” value is 0. Also, the IC50 under setting [1] was over 30 µM.

As to `OCc1ccccc1NC(=S)NCc1ccccc1` [C038, OCc1ccccc1NC(=S)NCc1ccccc1], the “Decoy – 0 Active – 1” value came to 0. Also, under setting [1], the IC50 was over 30 µM.
